The values that follow come from patent publication US20180125796A1, “TREATMENT OF MYCOBACTERIAL INFECTION” (priority 2015, published 2018).

This assay deals with NPC1. The class given is cell-based, Chinese Hamster.

As to trehalose dimycolate [TDM], the “resistance to phenotype induction by TDM versus extent of NPC1 overexpression” value was “cells over-expressing NPC1 by 15-fold were more resistant than those over-expressing NPC1 5-fold”. In addition, the “induction of NPC cellular phenotypes by TDM in CHO cells overexpressing NPC1, versus wild-type cells” value (FIG. 10B) was “more resistant to induction of NPC cellular phenotypes than wild-type cells”.
